ChEMBL document CHEMBL1135840, “Design, synthesis and pharmacological evaluation of novel pyrazolo[3,4-b]thieno[2,3-d]pyridine acid derivatives: a new class of anti-inflammatory and anti-platelet agents” (Bioorg Med Chem Lett, 2002)

species on record: Oryctolagus cuniculus; experiment: In vitro of platelet aggregation of citreated rabbit platelet-rich plasma, induced by arachidonic acid at 200 uM; assay type: functional; details: not given

| SMILES | Aggregation |
| --- | --- |
| Cc1nn(-c2ccccc2)c2ncc3c(OC(=O)CCCC(=O)O)c(-c4ccc(Cl)cc4)sc3c12 | 0% |
| Cc1nn(-c2ccccc2)c2ncc3c(OCCCCC(=O)O)c(-c4ccc(Cl)cc4)sc3c12 | 58.9% |
| Cc1nn(-c2ccccc2)c2ncc3c(OCCCCCC(=O)O)c(-c4ccc(Cl)cc4)sc3c12 | 56.6% |
| Cc1nn(-c2ccccc2)c2ncc3c(OCc4ccc(CC(=O)O)cc4)c(-c4ccc(Cl)cc4)sc3c12 | 60.5% |
| COc1ccc2c(c1)c(CC(=O)O)c(C)n2C(=O)c1ccc(Cl)cc1 [INDOMETHACIN] | 0% |

species on record: Oryctolagus cuniculus; experiment: In vitro of platelet aggregation of citreated rabbit platelet-rich plasma, induced by collagen at 5 µg/mL; value expressed as slope; details: not given

| SMILES | Aggregation |
| --- | --- |
| Cc1nn(-c2ccccc2)c2ncc3c(OC(=O)CCCC(=O)O)c(-c4ccc(Cl)cc4)sc3c12 | 0 |
| Cc1nn(-c2ccccc2)c2ncc3c(OCCCCC(=O)O)c(-c4ccc(Cl)cc4)sc3c12 | 7.5 |
| Cc1nn(-c2ccccc2)c2ncc3c(OCCCCCC(=O)O)c(-c4ccc(Cl)cc4)sc3c12 | 5.8 |
| Cc1nn(-c2ccccc2)c2ncc3c(OCc4ccc(CC(=O)O)cc4)c(-c4ccc(Cl)cc4)sc3c12 | 4.7 |
| COc1ccc2c(c1)c(CC(=O)O)c(C)n2C(=O)c1ccc(Cl)cc1 [INDOMETHACIN] | 0.4 |

species on record: Cavia porcellus; experiment: In vitro effect of compound on leukotriene-D4 LTD4 (100 nM) induced contraction of isolated guinea pig tracheal strip; assay type: functional; details: Trachea

| IC50 | SMILES |
| --- | --- |
| 43.7 µM | Cc1nn(-c2ccccc2)c2ncc3c(OC(=O)CCCC(=O)O)c(-c4ccc(Cl)cc4)sc3c12 |

system: Rattus norvegicus; experiment: Antiinflammatory effect at a dose of 100 umol/kg administered orally in the carrageenan-induced rat pleurisy assay (10e6 Cells/cavity); assay type: functional; details: not given

| SMILES | Cell number |
| --- | --- |
| Cc1nn(-c2ccccc2)c2ncc3c(OC(=O)CCCC(=O)O)c(-c4ccc(Cl)cc4)sc3c12 | 19600000 |
| Cc1nn(-c2ccccc2)c2ncc3c(OCCCCC(=O)O)c(-c4ccc(Cl)cc4)sc3c12 | 21.5 |
| Cc1nn(-c2ccccc2)c2ncc3c(OCCCCCC(=O)O)c(-c4ccc(Cl)cc4)sc3c12 | 17800000 |
| Cc1nn(-c2ccccc2)c2ncc3c(OCc4ccc(CC(=O)O)cc4)c(-c4ccc(Cl)cc4)sc3c12 | 21900000 |
| COc1ccc2c(c1)c(CC(=O)O)c(C)n2C(=O)c1ccc(Cl)cc1 [INDOMETHACIN] | 23.3 |

species on record: Oryctolagus cuniculus; experiment: Compound was tested for platelet aggregation in citreated rabbit platelet-rich plasma induced by arachidonic acid at 200 uM; assay type: functional; details: not given

| IC50 | SMILES |
| --- | --- |
| 140 nM | Cc1nn(-c2ccccc2)c2ncc3c(OC(=O)CCCC(=O)O)c(-c4ccc(Cl)cc4)sc3c12 |

system: Rattus norvegicus; experiment: Exudate volume was determined after administration at a dose of 100 umol/kg in the carrageenan-induced rat pleurisy assay; assay type: functional; details: not given

| SMILES | Exudate volume |
| --- | --- |
| COc1ccc2c(c1)c(CC(=O)O)c(C)n2C(=O)c1ccc(Cl)cc1 [INDOMETHACIN] | 3.21 mL |

system: Rattus norvegicus; experiment: Exudate volume was determined after administration at a dose of 100 umol/kg; assay type: functional; details: not given

| SMILES | Exudate volume |
| --- | --- |
| Cc1nn(-c2ccccc2)c2ncc3c(OC(=O)CCCC(=O)O)c(-c4ccc(Cl)cc4)sc3c12 | 3.05 mL |
| Cc1nn(-c2ccccc2)c2ncc3c(OCCCCC(=O)O)c(-c4ccc(Cl)cc4)sc3c12 | 3.22 mL |
| Cc1nn(-c2ccccc2)c2ncc3c(OCCCCCC(=O)O)c(-c4ccc(Cl)cc4)sc3c12 | 3.16 mL |
| Cc1nn(-c2ccccc2)c2ncc3c(OCc4ccc(CC(=O)O)cc4)c(-c4ccc(Cl)cc4)sc3c12 | 3.1 mL |

system: Rattus norvegicus; experiment: Percent inhibition of cellular migration by the compound at a dose of 100 umol/kg was evaluated; assay type: functional; details: not given

| SMILES | inhibition in vivo at 100 µmol/kg |
| --- | --- |
| Cc1nn(-c2ccccc2)c2ncc3c(OC(=O)CCCC(=O)O)c(-c4ccc(Cl)cc4)sc3c12 | 36.2% |
| Cc1nn(-c2ccccc2)c2ncc3c(OCCCCC(=O)O)c(-c4ccc(Cl)cc4)sc3c12 | 30% |
| Cc1nn(-c2ccccc2)c2ncc3c(OCCCCCC(=O)O)c(-c4ccc(Cl)cc4)sc3c12 | 42% |
| Cc1nn(-c2ccccc2)c2ncc3c(OCc4ccc(CC(=O)O)cc4)c(-c4ccc(Cl)cc4)sc3c12 | 28.7% |

system: Rattus norvegicus; experiment: Percent inhibition of cellular migration by the compound at a dose of 100 umol/kg was evaluated in the carrageenan-induced rat pleurisy assay; assay type: functional; details: not given

| SMILES | inhibition in vivo at 100 µmol/kg |
| --- | --- |
| COc1ccc2c(c1)c(CC(=O)O)c(C)n2C(=O)c1ccc(Cl)cc1 [INDOMETHACIN] | 24.1% |
